Calls of active or inactive are those of the source. The rule behind the calls is not given here.
Key:
Egl nine homolog 1 = Egl nine homolog 1 (Homo sapiens, UniProt Q9GZT9)
Hep 3B2 = assay: […] activity against human Hep3B cells assessed as increase of erythropoietin release by measuring effective concentration; type: functional, cell-based
[1] = Cmax in Cynomolgous monkey at 3 mg/kg,po; type: ADME, organism-based, Macaca fascicularis; conditions: cynomolgus monkey, in vivo
Cynomolgus monkey [2] = assay: animal or person; conditions: Macaca fascicularis, in Primates, po, 24 h
[3] = Half life in Cynomolgous monkey at 1 mg/kg,iv; type: ADME, organism-based, Macaca fascicularis; conditions: cynomolgus monkey, in vivo
[4] = Metabolic stability in Cynomolgous monkey assessed as compound remaining; type: ADME, Macaca fascicularis; conditions: cynomolgus monkey
[5] = Volume of distribution at steady state in Cynomolgous monkey at 1 mg/kg,iv; type: ADME, organism-based, Macaca fascicularis; conditions: cynomolgus monkey, in vivo, read-out: Vdss
Cynomolgus monkey [6] = assay: […] activity against Cynomolgous monkey assessed as increase of erythropoietin level in plasma at po administration measured after 12 hrs; type: functional, organism-based; conditions: Macaca fascicularis
[7] = Protein binding in Cynomolgous monkey assessed as assessed as unbound fraction; type: ADME, Macaca fascicularis; conditions: cynomolgus monkey
[8] = Lipophilicity, logD of the compound; type: physicochemical; conditions: octanol/water
[9] = AUC in Cynomolgous monkey at 3 mg/kg,po; type: ADME, organism-based, Macaca fascicularis; conditions: cynomolgus monkey, in vivo

Chain of Egl nine homolog 1 (Q9GZT9 whole entry): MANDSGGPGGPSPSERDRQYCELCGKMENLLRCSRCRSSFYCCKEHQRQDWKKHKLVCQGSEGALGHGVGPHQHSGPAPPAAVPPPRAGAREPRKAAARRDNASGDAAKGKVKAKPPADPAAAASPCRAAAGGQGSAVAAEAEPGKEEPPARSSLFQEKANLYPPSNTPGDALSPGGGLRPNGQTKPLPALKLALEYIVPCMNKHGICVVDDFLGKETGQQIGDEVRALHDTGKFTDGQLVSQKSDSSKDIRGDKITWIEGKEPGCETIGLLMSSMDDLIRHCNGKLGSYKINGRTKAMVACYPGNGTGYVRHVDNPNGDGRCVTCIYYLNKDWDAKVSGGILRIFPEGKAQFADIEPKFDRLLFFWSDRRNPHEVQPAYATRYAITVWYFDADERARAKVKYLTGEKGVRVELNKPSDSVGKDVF

| SMILES | IC50 (Egl nine homolog 1) [µM] | EC50 (Hep 3B2) [µM] | other results |
| --- | --- | --- | --- |
| Cc1nc(Cc2ccc(-c3ccccc3)cc2)nc(C(=O)NCC(=O)O)c1N | > 100 |  |  |
| Cc1nc(Cc2ccc(-c3ccccc3)cc2)nc(C(=O)NCC(=O)O)c1C(=O)O | > 100 |  |  |
| Cc1nc(Cc2ccc(-c3ccccc3)cc2)nc(C(=O)N[C@@H](C)C(=O)O)c1O | 10 | 14 |  |
| Cc1nc(Cc2ccc(-c3ccccc3)cc2)nc(C(=O)NCC(=O)O)c1S | 13 | 67 |  |
| CCc1nc(Cc2ccc(-c3ccccc3)cc2)nc(C(=O)NCC(=O)O)c1O | 7.3 | 16 |  |
| Cc1nc(Cc2ccccc2-c2ccccc2)nc(C(=O)NCC(=O)O)c1O | 17 |  |  |
| Cc1nc(CCc2ccc(F)cc2)c(O)c(C(=O)NCC(=O)O)n1 | 8.1 | 36 |  |
| Cc1nc(Cc2ccc(Cl)cc2)nc(C(=O)NCC(=O)O)c1O | 17 |  |  |
| Cc1nc(Cc2ccc(C(F)(F)F)cc2)nc(C(=O)NCC(=O)O)c1O | 11 | 29 |  |
| Cc1nc(Cc2ccc(-c3ccccc3)cc2)nc(C(=O)N[C@H](C)C(=O)O)c1O | > 100 |  |  |
| Cc1nc(Cc2ccc(C(C)(C)C)cc2)nc(C(=O)NCC(=O)O)c1O | 3.9 | 25 |  |
| Cc1nc(C(F)(F)c2ccc(-c3ccccc3)cc2)nc(C(=O)NCC(=O)O)c1O | 55 |  |  |
| Cc1nc(Cc2cccc(-c3ccccc3)c2)nc(C(=O)NCC(=O)O)c1O | 20 | 61 |  |
| Cc1nc(Cc2ccc(-c3ccccc3)cc2)c(O)c(C(=O)NCC(=O)O)n1 | 10 | 27 |  |
| O=C(O)CNC(=O)c1nc(Cc2ccc(-c3ccccc3)cc2)ncc1O | > 100 |  |  |
| Cc1nc(C(C)c2ccc(-c3ccccc3)cc2)nc(C(=O)NCC(=O)O)c1O (racemic) | 18 | 16 |  |
| Cc1nc(Cc2ccc(F)cc2)c(O)c(C(=O)NCC(=O)O)n1 | 11 | 51 |  |
| Cc1nc(Cc2ccc(-c3ccccc3)cc2)nc(C(=O)NCC(=O)O)c1O | 1.5 | 8.4 | Cmax [1]: 28000 ng/mL; ED10 (Cynomolgus monkey [2]): 2.2 mg/kg; half-life [3]: 13 h; Stability [4]: 90%; Vd [5]: 0.06 L/kg; Activity (Cynomolgus monkey [6]): Active; Fu [7]: 0.6%; logD [8]: 0.8; AUC [9]: 380 µg·h/mL |
| O=C(O)CNC(=O)c1nc(Cl)c2ccccc2c1O |  | 64 | ED10 (Cynomolgus monkey [2]): 13 mg/kg; Activity (Cynomolgus monkey [6]): Active |
| O=C(O)CNC(=O)c1nc(Cc2ccc(-c3ccccc3)cc2)nc(C(F)F)c1O | 4.1 | 105 |  |
| Cc1nc(C)c(O)c(C(=O)NCC(=O)O)n1 | 11 |  |  |
| Cc1nc(Cc2ccc(-c3ccccc3)cc2)nc(C(=O)NCC(=O)O)c1C | > 100 |  |  |
| Cc1nc(C(=O)NCC(=O)O)c(O)c(-c2ccc(F)cc2)n1 | 39 | 108 |  |
